We go through 2 compounds from article PMC10714399, “Open Source Antibiotics: Simple Diarylimidazoles Are Potent against Methicillin-Resistant Staphylococcus aureus” (ACS Infectious Diseases, 2023).

The nature of data set [1]: Distribution coefficient estimation using chromatography, gLogD (Monash). In kind it is physicochemical. Particulars: gradient HPLC retention against standard compounds, pH 7.4. In short, it runs like this:
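LogD at pH 7.4 was estimated by gradient HPLC, correlating compound retention with that of standard compounds of known partition coefficient, as a derivation of the Lombardo method.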

Data set [2] can be described thus: Mouse liver microsome (MLM) metabolic stability (UNC). In kind it is in vitro ADME. The source says:
Supplement id3c00286_si_002.xlsx, sheet "Series 2 Data" | column: MLM Clint (mL/min/kg) (UNC); MLM t1/2 (min) (UNC); MLM E (UNC)
A general note: Liver microsomes are a subcellular fraction often used to study metabolism.

Another data set can be described thus: LogD7.4 (Chrom Log D). In kind it is physicochemical. Particulars: chromatographic system (Chrom Log D); pH 7.4, NEU; read-out: LogD 7.4 (NEU).

With `c1ccc(-c2nc3n(c2-c2ccc4sccc4c2)CCC3)nc1` [OSA_000822], the chromatographic logD in data set [1] was 2.3. Moreover, the “MLM E (UNC)” value in data set [2] (mouse liver microsomes) amounted to 0.929. Besides, the intrinsic metabolic clearance (CLint scaled) in data set [2] (mouse, liver microsomes) was determined as 1170 mL/min/kg. Also, the half-life in data set [2] (mouse, liver microsomes, read-out: MLM t1/2 (UNC)) turned out to be 4.8 min.
Turning to `c1ccc(-c2nc3n(c2-c2ccc4occc4c2)CCC3)nc1` [compound 821], the chromatographic logD in the data set “LogD7.4 (Chrom Log D)” was determined as 2.7.

The term CLint scaled denotes a measure of how fast metabolising enzymes remove a compound, apart from limits set by blood flow.
